In patent US9006253B2, “Crystal of 2-(3,4-dichlorobenzyl)-5-methyl-4-oxo-3,4-dihydrothieno[2,3-D]pyrimidine-6-carboxylic acid” (ASKA Pharmaceutical Co., Ltd., priority 2010, dated 2015):
Values after ≈ are worked out from the molar mass of the structure shown. Like-named read-outs stand apart in the source and are kept apart here.

Assays:
[1] = Solubility in 0.5% aqueous Tween80 solution at 37° C.; format: physicochemical; details: for time at which near saturation was reached: stirring; for solubility: value of 3 hr
Protocol: Form I crystal obtained in Example 1, Form II crystal obtained in Example 2 and amorphous compound A obtained in Production Example 1 (each 50 mg) were suspended in 0.5% aqueous Tween80 solution (20 mL), sonicated, aqueous 0.5% Tween80 solution (180 mL) was added and the mixture was stirred at 37° C.
The solubility was measured by HPLC under the same conditions (isocratic method using acetonitrile/5 mmol/L ammonium hydrogen carbonate (pH 8.0) (27:73) for mobile phase) as in Experimental Example 1 at the time points of 0.5 hr, 1 hr, 2 hr, 3 hr, 4 hr, 5 hr, and 6 hr from the start of stirring. As a result, amorphous compound A reached near saturation at about 0.5 hr, Form I crystal reached near saturation at about 1 hr and Form II crystal reached near saturation at about 2 hr. Therefore, the value of 3 hr was taken as the solubility. The results are shown in Table 11 below together with the results of the following Experimental Example 3.

[2] = Thermal stability (decomposition product by HPLC, colour after heating); format: physicochemical; details: 6 hr; for amount of the decomposition product (decarboxylation substance of compound A): HPLC
Protocol: Form I crystal obtained in Example 1 and Form II crystal obtained in Example 2 and amorphous compound A obtained in Production Example 1 were heated at 100° C. for 6 hr or 200° C. for 6 hr, and the amount of the decomposition product 2-(3,4-dichlorobenzyl)-5-methyl-4-oxo-3,4-dihydrothieno[2,3-d]pyrimidine (decarboxylation substance of compound A) was measured by HPLC. In the HPLC measurement, the sample was suspended in a mobile phase, dissolved by adding 1 equivalent of aqueous sodium hydroxide and then applied.
HPLC Measurement Condition measuring apparatus: Waters Alliance HPLC system detector: ultraviolet absorption spectrophotometer (measurement wavelength 225 nm) column: XBridge C18 (Waters) column temperature: constant temperature near 30° C. mobile phase A: acetonitrile mobile phase B: 5 mmol/L ammonium hydrogen carbonate (pH 8.0) gradient method of mobile phase A and mobile phase B: mobile phase A 23% (0 to 15 min), mobile phase A 23%→55% (15 to 30 min), mobile phase A 55% (30 to 50 min)

Dog absorption test = format: in vivo; details: 0.3 mg/kg oral administration, average
Protocol: Form I crystal, Form II crystal and amorphous form of compound A were subjected to a dog absorption test under the following conditions.
sample: except for amorphous form, samples of Form I crystal and Form II crystal sieved to have a particle size of 20 to 63 μm by wet classification (two kinds of sieves and flowing water were used) were used.
Preparation method: 25 mL of water was added to a sample (3 g), and the mixture was gently pulverized in a mortar, classified under pressurization, and draught-dried. As amorphous form, a sample pulverized in agate mortar was used.
method: 9 dogs, 3×3 crossover, 0.3 mg/kg oral administration

Photostability test = format: physicochemical; details: xenon lamp 18 million Lxs, exposed to light for 8 hr
Protocol: Form I crystal, Form II crystal and amorphous form of compound A were subjected to a photostability test under the following conditions. The results are shown in FIG. 17. light source: xenon lamp 18 million Lxs
conditions: sample (6 mg) was weighed in a transparent sample bottle, and exposed to light for 8 hr.
HPLC conditions: same as in Experimental Example 1

[3] = Dissolution rate (disc, Paddle Method); format: physicochemical; details: 100 mg disc (diameter 12 mm), 0.5% aqueous Tween80 solution 900 mL, 37° C., Paddle Method 50 rpm
Protocol: Form I crystal obtained in Example 1, Form II crystal obtained in Example 2 and amorphous compound A obtained in Production Example 1 (each 100 mg) were compression molded by a tableting machine for IR measurement having a metal mold pre-treated with magnesium stearate, and formed into discs (diameter 12 mm). Each disc was added to 0.5% aqueous Tween80 solution (900 mL, 37° C.), the concentration was measured every 10 minutes up to 1 hr, and every 1 hour after 1 hr up to 3 hr, by HPLC under the same conditions as in Experimental Example 1 (isocratic method using acetonitrile/5 mmol/L ammonium hydrogen carbonate (pH 8.0) (27:73) for mobile phase) while maintaining the temperature at 37° C. according to the dissolution test apparatus Paddle Method (50 rpm), and each dissolution rate was calculated. The results are shown in Table 11 below together with the results of the above-mentioned Experimental Example 2.

PDE9 = PDE9 (Homo sapiens, UniProt O76083); details: as described in WO 2006/135080; cited from earlier work
Chain of PDE9 (O76083 whole entry): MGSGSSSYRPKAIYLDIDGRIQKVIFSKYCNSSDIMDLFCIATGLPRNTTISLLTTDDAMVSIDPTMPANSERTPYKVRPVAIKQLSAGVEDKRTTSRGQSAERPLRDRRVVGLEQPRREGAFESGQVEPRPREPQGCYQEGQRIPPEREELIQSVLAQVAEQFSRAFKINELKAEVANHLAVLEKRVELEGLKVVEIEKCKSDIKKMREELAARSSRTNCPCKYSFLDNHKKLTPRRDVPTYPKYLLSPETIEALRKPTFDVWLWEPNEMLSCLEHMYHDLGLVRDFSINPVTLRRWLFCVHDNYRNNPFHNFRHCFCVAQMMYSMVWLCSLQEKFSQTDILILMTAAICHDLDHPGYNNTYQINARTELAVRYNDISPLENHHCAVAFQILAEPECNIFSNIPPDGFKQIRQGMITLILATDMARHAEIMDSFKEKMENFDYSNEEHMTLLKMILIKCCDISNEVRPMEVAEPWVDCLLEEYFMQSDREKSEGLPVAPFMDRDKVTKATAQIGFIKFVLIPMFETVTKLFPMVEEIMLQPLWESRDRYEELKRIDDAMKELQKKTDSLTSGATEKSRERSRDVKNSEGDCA

PDE5 = PDE5 (Homo sapiens, UniProt O76074); details: as described in WO 2006/135080; cited from earlier work

SMILES	solubility [1] [µg/mL]	color of sample ([2]; heated at 100° C.)	amount of the decomposition product (decarboxylation substance of compound A) ([2]; heated at 100° C.)	color of sample ([2]; heated at 200° C.)	amount of the decomposition product (decarboxylation substance of compound A) ([2]; heated at 200° C.)	AUC0-t (Dog absorption test) [ng·h/mL]	AUCinf (Dog absorption test) [ng·h/mL]	Cmax (Dog absorption test) [ng/mL]	MRT (Dog absorption test) [h]	T1/2 (Dog absorption test) [h]	Tmax (Dog absorption test) [h]	dissolution rate [3] [µg/mL/min]	time at which near saturation was reached [1]	photostability (Photostability test)	also measured
Cc1c(C(=O)O)sc2nc(Cc3ccc(Cl)c(Cl)c3)[nH]c(=O)c12 [Amorphous form, 2-(3,4-dichlorobenzyl)-5-methyl-4-oxo-3,4-dihydrothieno[2,3-d]pyrimidine-6-carboxylic acid]	37 (≈ 100 µM)	slight brown	0.006%,	pale-brown	3.42%,	62.9	63.4	10.3	6.31	3.05	3.78	0.0052			time at which near saturation was reached ([1]; listed as amorphous compound A): about 0.5 hr; impurity after light exposure (Photostability test; HPLC): exceeding 0.2%
Cc1c(C(=O)O)sc2nc(Cc3ccc(Cl)c(Cl)c3)[nH]c(=O)c12 [Compound A, 2-(3,4-dichlorobenzyl)-5-methyl-4-oxo-3,4-dihydrothieno[2,3-d]pyrimidine-6-carboxylic acid]															PDE9 inhibitory action (PDE9): high PDE9 inhibitory action; PDE5 inhibitory action (PDE5): mild PDE5 inhibitory action
Cc1c(C(=O)O)sc2nc(Cc3ccc(Cl)c(Cl)c3)[nH]c(=O)c12 [Form I crystal, 2-(3,4-dichlorobenzyl)-5-methyl-4-oxo-3,4-dihydrothieno[2,3-d]pyrimidine-6-carboxylic acid]	15 (≈ 40.6 µM)	white	0%	slight brown	0.05%,	64.6	65.6	9.1				0.0017	about 1 hr	comparatively stable	half-life (Dog absorption test; in vivo, po, 0.3 mg/kg): 3.5 h; MRT (Dog absorption test; in vivo, po, 0.3 mg/kg, read-out: MRT): 6.73 h; Tmax (Dog absorption test; in vivo, po, 0.3 mg/kg, read-out: Tmax): 3.06 h
Cc1c(C(=O)O)sc2nc(Cc3ccc(Cl)c(Cl)c3)[nH]c(=O)c12 [Form II crystal, 2-(3,4-dichlorobenzyl)-5-methyl-4-oxo-3,4-dihydrothieno[2,3-d]pyrimidine-6-carboxylic acid]	10 (≈ 27.1 µM)	white	0%	slight brown	0.07%,	24.2	24.2	3.7	6.89	3.32	3.44	0.0011	about 2 hr	comparatively stable	
